Values after ≈ are worked out from the molar mass of the structure shown. “Also recorded” adds a separate entry of the source.
How the values were obtained:
L 929 cell = test: Cytotoxicity, 50% growth inhibition of L 929 cell; type: cell-based
Procedure: (§1) B-16 melanoma cell, P388 leukemia cell or L 929 cell was cultivated together with a prescribed amount of a test drug on a 24-well or 96-well test plate and the number of living cells was measured one day or 3 days later to know the 50% growth inhibition concentration.

B-16 melanoma cell = test: Cytotoxicity, 50% growth inhibition of B-16 melanoma cell; type: cell-based
Procedure: as §1

[1] = Acute toxicity, i.p. injection in BDF1 mouse; type: in vivo; conditions: in vivo, ip, 5 weeks old, female, intraperitoneal, read-out: 50% Lethal dose (LD50)
Procedure: (§2) A test drug was injected into the peritoneal cavity of BDF1 mouse (5 weeks old, female) to measure 50% lethal dose (LD50).

L 929 cells = test: Effect on cytotoxic activity of TNF; type: cell-based
Procedure: L 929 cells (10^4 cells/well) was cultivated on a test plate having 96 wells, and after 24 hours, a test drug and recombinant human-tumor necrosis factor (rHu - TNF) were added thereto such that rHu - TNF became 2.5×10^-11 g/ml (TNF activity of 2 unit/ml), and then, after 24 hours, the number of living cells was measured.
The effect of test drug on the cytotoxicity of TNF was calculated according to the above-mentioned formula (A) and shown by "%" value.
^1 The experiments were effected in the presence of TNF (2 units/ml)

[2] = Recovery effect on cachectin/TNF-induced reduction of lipoprotein lipase (LPL) in adipocytes; type: cell-based; conditions: mouse, 3t3-l1 cells; read-out: Concentration at which OK exhibits cytotoxicity
Procedure: (§3) 3T3-L1 cells (5×10^4 cells per well) were cultivated in wells of 48-well test plate for about one week until the cell growth reached became confluent. Test drug and 4×10^-10 ^- 10 g/ml (32 unit/ml as TNF activity) of recombinant human TNF (rHu-TNF) were added, and the cultivation was further continued.
(§4) After 20 hours, the test drug and rHu-TNF were removed. Then 10 unit/ml of heparin was added, and after 90 min., activity of lipoprotein lipase (LPL) isolated from 3T3-L1 cell by heparin was measured according to the method as described in Nelsson-Ehle, P., et al., J. Lipid Res., 17, 536 (1976).
(§5) On the LPL activity measured, the recovery on the reduction of lipoprotein lipase production was calculated by the following formula: [formula]
(§6) ^1 The experiment was performed in the presence of rHu TNF (32

[3] = tested on: lipoprotein lipase (LPL) of 3T3-L1 cells; test: as above; type: cell-based
Procedure: as §3, §4, §5, §6

P388 leukemia cell = test: Cytotoxicity, 50% growth inhibition of P388 leukemia cell; type: cell-based; conditions: Mus musculus, read-out: 50% growth inhibition concentration (IC50)
Procedure: as §1

Acid or base = type: physicochemical
Stability = type: physicochemical
BDF1 mouse = test: Acute toxicity, i.p. injection in BDF1 mouse; type: in vivo
Procedure: as §2

Solubility = type: physicochemical

C=C1C(O)C2OC3(CCC(C=CC(C)C4CC(C)=CC5(OC(CC(C)(O)C(=O)O)CCC5O)O4)O3)CCC2OC1C(O)CC(C)C1OC2(CCCCO2)CCC1C (stereo not drawn) [OK, okadaic acid]
IC50 (L 929 cell; Mus musculus, L929, read-out: 50% growth inhibition concentration (IC50)): 0.084 µg/mL (≈ 0.104 µM)
IC50 (B-16 melanoma cell; Mus musculus, B16, 24 h, B-16 melanoma, cultivated for one day, read-out: 50% growth inhibition concentration (IC50)): 0.018 µg/mL (≈ 0.0224 µM)
LD50 [1]: 0.16 mg/kg
Effect on cytolytic activity of TNF (in words) (L 929 cells): Neither GOK nor OK affected the cytolytic activity of TNF
MCC [2]: 0.1 µg/mL
Effect on lowered LPL production (in words) ([3]; OK, even at 0.1 μg/ml): did not exhibit the effect of inhibition
IC50 (P388 leukemia cell): 0.024 µg/mL (≈ 0.0298 µM)

glycookadaic acid [GOK]
50% growth inhibition concentration (IC50) (L 929 cell): 28 µg/mL
Acid or base (Acid or base): Weekly acidic substance
50% growth inhibition concentration (IC50) (B-16 melanoma cell; B-16 melanoma, cultivated for one day): 19 µg/mL
Cytotoxicity compared with OK (B-16 melanoma cell; all cell species of Table 1): much weaker than that of OK
Stability (Stability; acid): Unstable to acid
Stability (Stability; alkali): Relatively stable to alkali
Toxicity (in words) (BDF1 mouse): toxicity of GOK is low; also recorded: far safer drug than OK
50% Lethal dose (LD50) (BDF1 mouse; 5 weeks old, female, intraperitoneal): > 16 mg/kg
LD50 of GOK relative to that of OK (BDF1 mouse; intraperitoneal): ≥ 100 times
Effect on cytolytic activity of TNF (in words) (L 929 cells): Neither GOK nor OK affected the cytolytic activity of TNF; also recorded: does not suppress the cytotoxic activity of cachectin/TNF toward cancer cells
Solubility (Solubility; acetone or chloroform): Insoluble or sparsely soluble
Solubility (Solubility; methanol, ethanol or pyridine): Easily soluble
Recovery of LPL generation in adipocytes (in words) [3]: specifically recovers the lowering effect on the generation of lipoprotein lipase in adipocytes
Concentration with effect of recovering from the lowering of production of lipoprotein lipase ([3]; 3T3-L1 cells with rHu-TNF): 3 to 10 µg/mL

From patent publication US4835176A, “Glycookadaic acid, preparation thereof and use thereof” (priority 1987, dated 1989)
